From patent publication US20120184624A1, “Treatment of Alzheimer's Disease” (priority 2010, published 2012)
Read-outs that look alike come from different tables or passages of the source.

Experiments:
PP2A-holoenzymes = experiment: PP2A activity assay (malachite green), PP2A-holoenzymes immunopurified from HeLa cell lysates; assay type: biochemical; conditions: 10 nM okadaic acid, 1 hour
Experimental: (§1) Either purified PP2Ac (upstate), cell lysates or PP2A-holoenzymes, which were purified by immunoprecipitation using a PP2A-A-subunit antibody (Millipore), were incubated with or without 10 mM metformin or 10 nM okadaic acid for 1 hour. Afterwards PP2A phosphatase activity was determined using a malachite green assay kit (upstate) following the manufacturer's instructions.

tau = assay type: cell-based, mouse; conditions: for de-phosphorylation of tau at PP2A sensitive sites: increasing concentration of phenformin over 16 h or 1 h
Experimental: (§2) Primary cortical neurons were isolated from brain of wt or transgenic (Mapt^tm1(EGFP)klt Tg(MAPT)8cPdav/J; Jackson Laboratory) embryos at day 14.5. Cortices were collected in DMEM (Lonza) and cells were dissociated by incubation with Trypsin/EDTA for 6.5 min at 37° C. Cells were then diluted in neurobasal medium (Gibco-BRL) containing B27 supplement (Gibco BRL). Cells were plated at a density of 4.0×10^5 onto 0.2 mg/ml poly-D-lysin (Sigma) and 2 μg/ml Laminin (Sigma) coated 12 well plates. Neurons were incubated at 37° C. with 8% CO2. One hour after seeding a complete change of medium was performed. Later on, each 96 hours half volumes of the medium were replaced by fresh medium. After 7 days in culture neurons were treated.
(§3) Cells were incubated with the respective substances as follows: Metformin (Sigma) at final concentrations up to 2.5 mM for 1 to >24 hours, okadaic acid (Sigma) at final concentrations from 1 nM to 10 nM for 4 h, Fostricien (Sigma) at final concentration of 1 μM for 4 h and AICAR (cell signalling) at final concentration of 5 mM for 0.5-16 h. For cell treatment without insulin, medium containing B27+insulin supplement was replaced with medium containing B27-supplement without insulin 24 h before treatment. 3 groups of 2 mice were treated with or without 5 mg/l metformin in the drinking water.
(§4) Cell pellets were homogenized in Magic-Mix (48% UREA, 15 mM Tris-HCL pH 7.5, 8.7% Glycerin, 1% SDS, 0.004% Bromphenolblue, 143 mM Mercaptoethanol), sonicated and boiled for 5 min at 95° C. Proteins were resolved on 8 or 10% SDS gels and blotted onto PVDF-membranes (Roche). Antibodies used in this study were purchased from the following companies: Tau-5 (Biosource), anti-human PHF pSer202 (Thermo scientific), Tau pSer356 (Biosource), Tau pSer262 (Biosource), Tau pSer396 (Sigma), Actin (Sigma), ACC (cell signalling), ACC pSer79 (cell signalling), phospho-S6 ribosomal protein pSer241/244 (cell signalling), p70S6 Kinase (cell signalling), p70S6K pThr421/pSer424 (cell signalling), mTOR (cell signalling), AMPK (cell signallling, AMPK pThr172 (cell singnaling), HRP-anti-rabbit (Amersham), HRP-anti-mouse (Dianova). The resulting bands were quantified using Imagequant5.2. Statistical analyses were performed using SigmaStat software package (v 3.0, SPSS, USA). For timecourse or dose-response studies, data were analyses by one-way ANOVA with post hoc Dunnett's or Bonferonni test to accommodate for multiple comparisons. A Student's t-test was used for two-group comparisons, as appropriate.

[1] = target: T1, purified PP2Ac (catalytic subunit of PP2A) (Homo sapiens, UniProt P67775); experiment: PP2A activity assay (malachite green), purified PP2Ac; assay type: biochemical; conditions: 10 nM okadaic acid, 1 hour
T1 construct: purchased upstate
Experimental: as §1

p70S6kinase = experiment: Phosphorylation of p70S6kinase in primary cortical neurons; assay type: cell-based, mouse; conditions: 0.25 mM phenformin over increasing time intervals
Experimental: as §2, §3, §4

ACC = experiment: Phosphorylation of the AMPK target ACC (Ser79) in primary cortical neurons; assay type: cell-based, mouse; conditions: 0.25 mM phenformin, increasing time intervals
Experimental: as §2
as §3, with “3 groups of 2 mice were treated with or without 5 mg/l metformin in the drinking water.” left out
as §4, with “Proteins were resolved on 8 or 10% SDS gels and blotted onto PVDF-membranes (Roche).” left out, “Statistical analyses were performed using SigmaStat software package (v 3.0, SPSS, USA). For timecourse or dose-response studies, data were analyses by one-way ANOVA with post hoc Dunnett's or Bonferonni test to accommodate for multiple comparisons. A Student's t-test was used for two-group comparisons, as appropriate.” left out

[2] = increasing concentrations of okadaic acid (1 nM to 10 nM), four hours

T1 sequence (P67775 whole entry): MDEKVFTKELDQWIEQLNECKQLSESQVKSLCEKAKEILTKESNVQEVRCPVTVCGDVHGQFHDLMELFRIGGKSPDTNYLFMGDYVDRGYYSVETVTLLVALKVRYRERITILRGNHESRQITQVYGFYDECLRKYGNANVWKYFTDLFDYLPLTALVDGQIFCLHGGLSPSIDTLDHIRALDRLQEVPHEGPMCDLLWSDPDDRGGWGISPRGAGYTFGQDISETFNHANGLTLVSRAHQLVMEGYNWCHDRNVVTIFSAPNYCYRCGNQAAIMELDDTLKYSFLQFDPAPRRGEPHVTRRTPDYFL

Compound	activity of the immunopurified PP2A protein complex (PP2A-holoenzymes)	phosphorylation of Ser202 (tau; 10 nM okadaic acid alone, 4 hours)	phosphorylation of Ser202 relative to total tau (tau; [2])	phosphorylation of Ser262 relative to total tau (tau; [2])	phosphorylation of Ser356 relative to total tau (tau; [2])	phosphorylation of Ser396 relative to total tau (tau; [2])	PP2A activity of purified PP2Ac [1]	de-phosphorylation of tau at PP2A sensitive sites (tau)	de-phosphorylation of tau at PP2A sensitive sites (tau; listed as Phenformin)	effect on Ser202 phosphorylation with and without okadaic acid pre-treatment (tau; okadaic acid 10 nM prior to phenformin 0.25 mM, 4 hours)	phosphorylation status of p70S6kinase (p70S6kinase)	phosphorylation status of p70S6kinase (p70S6kinase; listed as Phenformin)	ACC phosphorylation (Ser79) (ACC)
C=C1[C@@H](O)[C@@H]2O[C@]3(CC[C@H](/C=C/[C@@H](C)[C@@H]4CC(C)=C[C@@]5(O[C@H](C[C@@](C)(O)C(=O)O)CC[C@H]5O)O4)O3)CC[C@H]2O[C@@H]1[C@@H](O)C[C@H](C)[C@H]1O[C@@]2(CCCCO2)CC[C@H]1C [okadaic acid]	reduced	increased	increased with the concentration of OA	increased with the concentration of OA	increased with the concentration of OA	did not increase significantly	reduced	–	–	–	–	–	–
[H]/N=C(/N)N/C(=N/[H])NCCc1ccccc1 [phenformin, Phenformin]	–	–	–	–	–	–	–	Comparable results	induces de-phosphorylation	inhibition of PP2A blocks the Phenformin effect	promoted de-phosphorylation	decrease of pS6kinase phosphorylation	neither metformin (FIG. 4a) nor phenformin (FIG. 12) had an effect
